Assay results published in ChEMBL document CHEMBL1158828, “(+)-Myristinins A and D from Knema elegans, which inhibit DNA polymerase beta and cleave DNA” (J Nat Prod, 2005).
Calls of active or inactive are those of the source. The rule behind the calls is not given here.

Assays:
DNA polymerase beta [1] = molecular target: T1, DNA polymerase beta (Rattus norvegicus, UniProt P06766); assay: Inhibition of rat recombinant DNA polymerase beta in presence of bovine serum albumin
DNA polymerase beta [2] = molecular target: T1, DNA polymerase beta; assay: Inhibition of rat recombinant DNA polymerase beta in absence of bovine serum albumin
DNA polymerase beta [3] = molecular target: T1, DNA polymerase beta; assay: Activity of rat recombinant DNA polymerase beta using variable levels of DNA template-primer
[4] = molecular target: DNA polymerase beta (Rattus norvegicus) (UniProt P06766); assay: Activity of rat recombinant DNA polymerase beta using variable levels of dNTP concentration
Escherichia coli [5] = assay: Induction of strand scission activity in Escherichia coli supercoiled pSP64 DNA assessed as relaxation of DNA after 1 hr by agarose gel electrophoresis in presence of Cu2+
[6] = Potentiation of bleomycin-induced cytotoxicity against mouse P388D1 cells assessed as reduction in cell viability at 9 uM after 6 hrs by trypan blue exclusion test; type: functional
Escherichia coli [7] = assay: Induction of strand scission activity in Escherichia coli supercoiled pSP64 DNA assessed as relaxation of DNA at 10 µM by agarose gel electrophoresis in presence of Cu2+

Row | SMILES | IC50 (DNA polymerase beta [1]) | IC50 (DNA polymerase beta [2]) | Ki (DNA polymerase beta [3]) | Kii [4] | Kis [4] | Activity (Escherichia coli [5]) | Activity [6] | Activity (Escherichia coli [7])
1 | O=C(CCCCCCCCc1ccccc1)c1c(O)cc(O)c([C@@H]2C[C@@H](c3ccc(O)cc3)Oc3cc(O)ccc32)c1O | 4.3 µM | 1.2 µM | 12 µM | 0.8 µM | 23 µM | Dose-dependent effect | 30% | Active
2 | CCCCCCCCCCCC(=O)c1c(O)cc(O)c([C@@H]2C[C@@H](c3ccc(O)cc3)Oc3cc(O)ccc32)c1O | 12 µM | 2.7 µM | 11 µM | 4.3 µM | 8.2 µM | Dose-dependent effect | 30% | Active
